Square brackets hold non-standard residues; d marks the D form. Peptide text beside a SMILES is read from it. Phe(4-I) = N[C@@H](Cc1ccc(I)cc1)C(=O)O
Assays:
HIF-1α PAS-B (238-349) = target: T1, HIF-1α PAS-B (238-349) (Homo sapiens, UniProt Q16665); assay: MST binding to recombinantly expressed HIF-1α PAS-B domain; details: HIF-1α PAS-B, parent CRLIIF
T1 construct: human HIF-1α PAS-B (238-349); His tag; made in house; host or cells: E. coli BL21(DE3)-Rosetta, pET28a
Experimental: (§1) Genes encoding for human HIF-1α PAS-B (238-349) and HIF-2α PAS-B (240-350) were each cloned into pET28a vectors at the BamHI and SacI restriction sites. The recombinant plasmids were next transformed into BL21(DE3)-Rosetta chemically competent cells. Cells were grown in LB media at 37° C. to an OD600 of 0.7, after which expression was induced by addition of 0.5 mM IPTG. Following overnight expression at 16° C., cells were pelleted and resuspended in buffer containing 50 mM Tris, 150 mM NaCl, 5% glycerol, 1 mM TCEP, protease inhibitors (Roche) and 20 mM imidazole, pH 8.0. Cells were lysed by sonication, and the supernatant applied to a 1 mL Histrap FF affinity column. The His-tagged protein of interest was eluted with buffer containing 50 mM Tris, 150 mM NaCl, 5% glycerol, 1 mM TCEP and 250 mM imidazole. The protein was then loaded onto a HiLoad 16/600 superdex 75 pg size exclusion column (GE healthcare) equilibrated with assay buffer containing 50 mM Tris, 150 mM NaCl, 5% glycerol and 1 mM TCEP, pH 8.0. Fractions containing the desired protein were flash-frozen and stored at −80° C. prior to use.
HIF-α proteins were labelled with Monolith NT-647 labelling dye (Nanotemper Technologies GmbH) according to the manufacturer's instructions. MST experiments were performed on a Monolith NT.115 system (Nanotemper Technologies GmbH), in assay buffer containing 50 nM labelled protein, 10% DMSO and 0.05% TWEEN-20. MST measurements were performed using 50% LED and 50% MST power.

[1] = test system: HRE-controlled YFP expression in T-REx-293 cell line; assay: YFP reporter assay (YFP under control of three HRE copies) in hypoxia; format: cell-based; details: YFP-reporter HEK cell line, various doses
Experimental: The effect of the cyclic peptides on cellular systems was assessed. A cell-based assay was developed in which the expression of yellow fluorescent protein (YFP) was put under the control of the HRE. A cassette was designed containing the YFP gene preceded by three copies of the HRE sequence. This cassette in turn was stably integrated into the chromosome of T-REX-293 cell line as described previously. […] In these cells, hypoxia results in increased expression of YFP (directly by HIF), so a HIF inhibitor would be expected to reduce the fluorescence of these cells when incubated in hypoxia.
Following in vitro characterisation and optimisation of binding, the effect of the cyclic peptides on cellular systems was assessed. A cell-based assay was developed in which the expression of yellow fluorescent protein (YFP) was put under the control of the HRE. A cassette was designed containing the YFP gene preceded by three copies of the HRE sequence. This cassette in turn was stably integrated into the chromosome of T-REx-293 cell line as described previously.^12
In these cells, hypoxia results in increased expression of YFP (directly by HIF), so a HIF inhibitor would be expected to reduce the fluorescence of these cells when incubated in hypoxia.

HIF-1a = target: T2, HIF-1a (Homo sapiens, UniProt Q16665); assay: CETSA in MCF-7 cells; format: cell-based; details: observed at 51° C. and 54° C.
T2 construct: endogenous in cells; host or cells: MCF-7
T2 sequence (Q16665 whole entry): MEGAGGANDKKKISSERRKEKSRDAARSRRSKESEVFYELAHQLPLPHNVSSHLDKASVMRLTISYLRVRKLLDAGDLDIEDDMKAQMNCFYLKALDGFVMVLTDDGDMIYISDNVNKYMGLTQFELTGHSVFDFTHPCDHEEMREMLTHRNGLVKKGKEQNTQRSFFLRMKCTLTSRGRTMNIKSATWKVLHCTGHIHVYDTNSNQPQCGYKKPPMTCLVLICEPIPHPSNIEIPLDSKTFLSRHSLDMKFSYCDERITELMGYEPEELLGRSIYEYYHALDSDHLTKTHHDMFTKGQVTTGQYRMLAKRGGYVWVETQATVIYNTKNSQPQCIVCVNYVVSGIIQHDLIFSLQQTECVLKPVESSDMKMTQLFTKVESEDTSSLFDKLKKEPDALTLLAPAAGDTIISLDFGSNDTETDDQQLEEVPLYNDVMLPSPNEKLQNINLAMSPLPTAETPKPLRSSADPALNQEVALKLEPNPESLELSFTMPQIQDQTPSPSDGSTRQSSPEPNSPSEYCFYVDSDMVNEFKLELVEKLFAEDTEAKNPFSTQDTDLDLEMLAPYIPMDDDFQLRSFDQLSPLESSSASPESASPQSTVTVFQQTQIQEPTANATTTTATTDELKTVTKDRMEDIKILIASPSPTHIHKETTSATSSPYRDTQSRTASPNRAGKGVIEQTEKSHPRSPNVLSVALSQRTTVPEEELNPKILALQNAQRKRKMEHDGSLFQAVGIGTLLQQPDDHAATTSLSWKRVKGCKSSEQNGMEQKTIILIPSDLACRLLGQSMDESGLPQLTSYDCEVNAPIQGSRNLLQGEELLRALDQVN
Experimental: The binding of 4-iodo derivative to HIF-1a was assessed by CETSA in MCF-7 cells. Stabilisation of HIF-1a by this compound can be observed at 51° C. and 54° C.
The binding of 4-iodo derivative to HIF-1a was assessed by CETSA in MCF-7 cells. Stabilisation of HIF-1a by this compound can be observed at 51° C. and 54° C. (FIG. 7).

cells = assay: commercial cell-viability assay; format: cell-based; details: at up to twice the tested doses
Experimental: The 4-iodo derivative was tested in a commercial cell-viability assay, and was not toxic to cells at up to twice the tested doses.
The 4-iodo derivative was tested in a commercial cell-viability assay, and was not toxic to cells at up to twice the tested doses (FIG. 6).

solubility (qualitative) = format: physicochemical
HIF-2α PAS-B (240-350) = target: T3, HIF-2α PAS-B (240-350) (Homo sapiens, UniProt Q99814); assay: MST binding to recombinantly expressed HIF-2α PAS-B domain; details: HIF-2α PAS-B vs HIF-1α PAS-B
T3 construct: HIF-2α PAS-B (240-350); His tag; made in house; host or cells: E. coli BL21(DE3)-Rosetta, pET28a
T3 sequence (Q99814 240-350): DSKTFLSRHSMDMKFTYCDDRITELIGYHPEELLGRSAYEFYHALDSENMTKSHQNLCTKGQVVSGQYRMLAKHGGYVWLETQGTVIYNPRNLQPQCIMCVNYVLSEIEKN
Experimental: The three lead peptides were next chemically synthesised, using Fmoc-solid phase peptide synthesis methodology, followed by in-solution cyclisation under high dilution conditions.
as §1, with “use. […]” for “use.”

T1 sequence (Q16665 238-349): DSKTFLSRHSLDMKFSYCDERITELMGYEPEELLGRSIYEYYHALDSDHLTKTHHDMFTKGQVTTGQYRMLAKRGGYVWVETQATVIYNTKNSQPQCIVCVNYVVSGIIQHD

For `CC[C@H](C)[C@@H]1NC(=O)[C@H](CC(C)C)NC(=O)[C@H](CCCNC(=N)N)NC(=O)[C@H](CS)NC(=O)[C@H](Cc2ccc(I)cc2)NC(=O)[C@H]([C@@H](C)CC)NC1=O` [Cyclic peptide #18, cyclo-cys agr leuileile (4-I)phe] (cyclo(CRLII[Phe(4-I)])), the “improvement in affinity relative to the parent compound” value (HIF-1α PAS-B (238-349)) was 4.5 fold, the IC50 [1] was about 35 µM and the “Stabilisation of HIF-1a by CETSA” value (HIF-1a) was “Stabilisation”. For the same compound, the “toxicity to cells in cell-viability assay” value (cells) was “not toxic”, the “water solubility compared with the 4-benzyl compound” value (solubility (qualitative)) was “better water solubility” and the “loss in Kd compared to the 1α isoform” value (HIF-2α PAS-B (240-350)) was 2.2 fold.

Reference: US20240270793A1, “COMPOSITIONS” (UNIVERSITY OF SOUTHAMPTON, priority 2020, published 2024)
